# Assay results from patent US11420935B2, “Bicyclic compounds” (Vivace Therapeutics, Inc., priority 2019, dated 2022).
# Test system: 8×TBD luciferase reporter (YAP) in HEK293T cells
# Assay: YAP Reporter Assay (8×TBD firefly luciferase reporter)
# Format: cell-based
# Details: Homo sapiens, HEK-293T, 24 h, read-out: Firefly Luciferase IC50 (μM)
# In short: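 Stably transfected HEK293T cells (8×TBD firefly luciferase plus TK-renilla) were dosed with 10-point 1:3 dilutions from 3 μM final, quadruplicates, for 24 h at 37 °C. Dual-Glo read firefly and renilla luminescence; IC50 and maximal inhibition reported separately for each.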
row,Structure (SMILES),IC50 [µM]
1,"COc1cc(Oc2ccc(C(F)(F)F)cc2)c2ncc(C(=O)NC(C)C)cc2c1 [Compound 113, N-Isopropyl-6-methoxy-8-(4-(trifluoromethyl)phenoxy)quinoline-3-carboxamide]",< 0.1
2,"C[C@H](NC(=O)c1ccc2c(Oc3ccc(C(F)(F)F)cc3)cccc2c1)C1CN(CCO)C1 [Compound 128, (S)—N-(1-(1-(2-hydroxyethyl)azetidin-3-yl)ethyl)-5-(4-(trifluoromethyl)phenoxy)-2-naphthamide]",0.1 to 1
3,"C[C@@H](NC(=O)c1ccc2c(Oc3ccc(C(F)(F)F)cc3)cccc2c1)C1CN(CCO)C1 [Compound 135, (R)—N-(1-(1-(2-hydroxyethyl)azetidin-3-yl)ethyl)-5-(4-(trifluoromethyl)phenoxy)-2-naphthamide]",0.1 to 1

# Same assay, conditions: Homo sapiens, HEK-293T; HEK293T cells stably transfected with 8×TBD luciferase reporter and pRLTK; 24-hr incubation; firefly luciferase activity; read-out: Firefly Luciferase IC50
row,Structure (SMILES),IC50 [µM]
1,"C[C@@H](NC(=O)c1ccc2c(Oc3ccc(C(F)(F)F)cc3)cccc2c1)C1CNC1 [Compound 96, N-[(1R)-1-(azetidin-3-yl)ethyl]-5-[4-(trifluoromethyl)phenoxy]naphthalene-2-carboxamide]",< 0.1
2,"C[C@H](NC(=O)c1cc2cccc(Oc3ccc(C(F)(F)F)cc3)c2s1)c1ccccn1 [Compound 97, (S)—N-(1-(pyridin-2-yl)ethyl)-7-(4-(trifluoromethyl)phenoxy)benzothiophene-2-carboxamide]",< 0.1
3,"C[C@@H](NC(=O)c1ccc2c(Oc3ccc(C(F)(F)F)cc3)cccc2c1)c1cccc2ccc(=O)[nH]c12 [Compound 98, N-[(1R)-1-(2-oxo-1H-quinolin-8-yl)ethyl]-5-[4-(trifluoromethyl)phenoxy]naphthalene-2-carboxamide]",< 0.1
4,"CC(=O)N1CC([C@H](C)NC(=O)c2ccc3c(Oc4ccc(C(F)(F)F)cc4)cccc3c2)C1 [Compound 100, (S)—N-(1-(1-acetylazetidin-3-yl)ethyl)-5-(4-(trifluoromethyl)phenoxy)-2-naphthamide]",0.1 to 1
5,"CC(=O)N1CC([C@@H](C)NC(=O)c2ccc3c(Oc4ccc(C(F)(F)F)cc4)cccc3c2)C1 [Compound 101, (R)—N-(1-(1-acetylazetidin-3-yl)ethyl)-5-(4-(trifluoromethyl)phenoxy)-2-naphthamide]",0.1 to 1
6,"C[C@H](CO)NC(=O)c1cnc2c(Oc3ccc(C(F)(F)F)cc3)cc(F)c(F)c2c1 [Compound 102, (R)-5,6-difluoro-N-(1-hydroxypropan-2-yl)-8-(4-(trifluoromethyl)phenoxy)quinoline-3-carboxamide]",< 0.1
7,"C[C@@H](NC(=O)c1cnc2c(Oc3ccc(C(F)(F)F)cc3)cccc2c1)c1cccc2nc[nH]c12 [Compound 103, (R)—N-(1-(1H-benzo[d]imidazol-7-yl)ethyl)-8-(4-(trifluoromethyl)phenoxy)quinoline-3-carboxamide]",0.1 to 1
8,"C[C@H](NC(=O)c1cnc2c(Oc3ccc(C(F)(F)F)cc3)cccc2c1)c1cccc2nc[nH]c12 [Compound 104, (S)—N-(1-(1H-benzo[d]imidazol-7-yl)ethyl)-8-(4-(trifluoromethyl)phenoxy)quinoline-3-carboxamide]",< 0.1
9,"C[C@@H](NC(=O)c1cnc2c(Oc3ccc(C(F)(F)F)cc3)cccc2c1)c1cccc2ccsc12 [Compound 105, (R)—N-(1-(benzo[b]thiophen-7-yl)ethyl)-8-(4-(trifluoromethyl)phenoxy)quinoline-3-carboxamide]",0.1 to 1
10,"C[C@H](CN)NC(=O)c1ccc2c(Oc3ccc(C(F)(F)F)cc3)cccc2c1 [Compound 107, (R)—N-(1-aminopropan-2-yl)-5-(4-(trifluoromethyl)phenoxy)-2-naphthamide]",0.1 to 1
11,"C[C@@H](CN)NC(=O)c1ccc2c(Oc3ccc(C(F)(F)F)cc3)cccc2c1 [Compound 108, (S)—N-(1-aminopropan-2-yl)-5-(4-(trifluoromethyl)phenoxy)-2-naphthamide]",< 0.1
12,"O=C(N[C@H](CCO)c1ccccn1)c1ccc2c(Oc3ccc(C(F)(F)F)cc3)cccc2c1 [Compound 109, (R)—N-(3-hydroxy-1-(pyridin-2-yl)propyl)-5-(4-(trifluoromethyl)phenoxy)-2-naphthamide]",0.1 to 1
13,"O=C(N[C@@H](CCO)c1ccccn1)c1ccc2c(Oc3ccc(C(F)(F)F)cc3)cccc2c1 [Compound 110, (S)—N-(3-hydroxy-1-(pyridin-2-yl)propyl)-5-(4-(trifluoromethyl)phenoxy)-2-naphthamide]",< 0.1
14,"C[C@@H](CCN)NC(=O)c1ccc2c(Oc3ccc(C(F)(F)F)cc3)cccc2c1 [Compound 111, (S)—N-(4-aminobutan-2-yl)-5-(4-(trifluoromethyl)phenoxy)-2-naphthamide]",< 0.1
15,"C[C@H](CCN)NC(=O)c1ccc2c(Oc3ccc(C(F)(F)F)cc3)cccc2c1 [Compound 112, (R)—N-(4-aminobutan-2-yl)-5-(4-(trifluoromethyl)phenoxy)-2-naphthamide]",< 0.1
16,"C[C@H](CCO)NC(=O)c1ccc2c(Oc3ccc(C(F)(F)F)cc3)cccc2c1 [Compound 114, (R)—N-(4-hydroxybutan-2-yl)-5-(4-(trifluoromethyl)phenoxy)-2-naphthamide]",< 0.1
17,"C[C@@H](CCO)NC(=O)c1ccc2c(Oc3ccc(C(F)(F)F)cc3)cccc2c1 [Compound 115, (S)—N-(4-hydroxybutan-2-yl)-5-(4-(trifluoromethyl)phenoxy)-2-naphthamide]",< 0.1

row,Structure (SMILES),IC50 [µM]
1,"COc1cc(Oc2ccc(C(F)(F)F)cc2)c2ncc(C(=O)N[C@H](C)CO)cc2c1 [Compound 116, (R)—N-(1-hydroxypropan-2-yl)-6-methoxy-8-(4-(trifluoromethyl)phenoxy)quinoline-3-carboxamide]",< 0.1
2,"NS(=O)(=O)c1ccc2c(Oc3ccc(C(F)(F)F)cc3)cccc2c1 [Compound 117, 5-(4-(trifluoromethyl)phenoxy)naphthalene-2-sulfonamide]",< 0.1
3,"COc1cc(Oc2ccc(C(F)(F)F)cc2)c2ncc(C(=O)NC(CO)c3ccccn3)cc2c1 (stereo not shown) [Compound 118, N-(2-Hydroxy-1-(pyridin-2-yl)ethyl)-6-methoxy-8-(4-(trifluoromethyl)phenoxy)quinoline-3-carboxamide]",< 0.1
4,"O=C(N[C@H](CO)c1ccccn1)c1ccc2c(Oc3ccc(C(F)(F)F)cc3)cccc2c1 [Compound 119, (S)—N-(2-hydroxy-1-(pyridin-2-yl)ethyl)-5-(4-(trifluoromethyl)phenoxy)-2-naphthamide]",< 0.1
5,"O=C(N[C@@H](CO)c1ccccn1)c1ccc2c(Oc3ccc(C(F)(F)F)cc3)cccc2c1 [Compound 120, (R)—N-(2-hydroxy-1-(pyridin-2-yl)ethyl)-5-(4-(trifluoromethyl)phenoxy)-2-naphthamide]",0.1 to 1
6,"O=C(NC(CCO)CCO)c1ccc2c(Oc3ccc(C(F)(F)F)cc3)cccc2c1 [Compound 121, N-(1,5-dihydroxypentan-3-yl)-5-(4-(trifluoromethyl)phenoxy)-2-naphthamide]",< 0.1
7,"C[C@@H](NC(=O)c1ccc2c(Oc3ccc(C(F)(F)F)cc3)cccc2c1)C1CN(CCCCO)C1 [Compound 123, (R)—N-(1-(1-(4-hydroxybutyl)azetidin-3-yl)ethyl)-5-(4-(trifluoromethyl)phenoxy)-2-naphthamide]",0.1 to 1
8,"C[C@@H](NC(=O)c1ccc2c(Oc3ccc(C(F)(F)F)cc3)cccc2c1)C1CN(CCF)C1 [Compound 124, (R)—N-(1-(1-(2-fluoroethyl)azetidin-3-yl)ethyl)-5-(4-(trifluoromethyl)phenoxy)-2-naphthamide]",< 0.1
9,"C[C@@H](NC(=O)c1ccc2c(Oc3ccc(C(F)(F)F)cc3)cccc2c1)C1CN(CC(F)F)C1 [Compound 125, (R)—N-(1-(1-(2,2-difluoroethyl)azetidin-3-yl)ethyl)-5-(4-(trifluoromethyl)phenoxy)-2-naphthamide]",< 0.1
10,"C[C@@H](NC(=O)c1ccc2c(Oc3ccc(C(F)(F)F)cc3)cccc2c1)C1CN(C)C1 [Compound 126, (R)—N-(1-(1-methylazetidin-3-yl)ethyl)-5-(4-(trifluoromethyl)phenoxy)-2-naphthamide]",0.1 to 1
11,"C[C@H](NC(=O)c1ccc2c(Oc3ccc(C(F)(F)F)cc3)cccc2c1)C1CN(C)C1 [Compound 127, (S)—N-(1-(1-methylazetidin-3-yl)ethyl)-5-(4-(trifluoromethyl)phenoxy)-2-naphthamide]",1 to 3
12,"C[C@H](NC(=O)c1ccc2c(Oc3ccc(C(F)(F)F)cc3)cccc2c1)C1CN(CCF)C1 [Compound 129, (S)—N-(1-(1-(2-fluoroethyl)azetidin-3-yl)ethyl)-5-(4-(trifluoromethyl)phenoxy)-2-naphthamide]",1 to 3
13,"CCN1CC([C@H](C)NC(=O)c2ccc3c(Oc4ccc(C(F)(F)F)cc4)cccc3c2)C1 [Compound 130, (S)—N-(1-(1-ethylazetidin-3-yl)ethyl)-5-(4-(trifluoromethyl)phenoxy)-2-naphthamide]",0.1 to 1
14,"CCN1CC([C@@H](C)NC(=O)c2ccc3c(Oc4ccc(C(F)(F)F)cc4)cccc3c2)C1 [Compound 131, (R)—N-(1-(1-ethylazetidin-3-yl)ethyl)-5-(4-(trifluoromethyl)phenoxy)-2-naphthamide]",0.1 to 1
15,"CC(C)N1CC([C@H](C)NC(=O)c2ccc3c(Oc4ccc(C(F)(F)F)cc4)cccc3c2)C1 [Compound 132, (S)—N-(1-(1-isopropylazetidin-3-yl)ethyl)-5-(4-(trifluoromethyl)phenoxy)-2-naphthamide]",0.1 to 1
16,"CC(C)N1CC([C@@H](C)NC(=O)c2ccc3c(Oc4ccc(C(F)(F)F)cc4)cccc3c2)C1 [Compound 133, (R)—N-(1-(1-isopropylazetidin-3-yl)ethyl)-5-(4-(trifluoromethyl)phenoxy)-2-naphthamide]",1 to 3
17,"C[C@H](NC(=O)c1ccc2c(Oc3ccc(C(F)(F)F)cc3)cccc2c1)C1CN(CC(F)F)C1 [Compound 134, (S)—N-(1-(1-(2,2-difluoroethyl)azetidin-3-yl)ethyl)-5-(4-(trifluoromethyl)phenoxy)-2-naphthamide]",1 to 3
